We go through 44 compounds from patent publication US20170239249A1, “QUINAZOLINE-BASED KINASE INHIBITORS” (Bristol-Myers Squibb Company, priority 2014, published 2017).

Each structure is given as a SMILES string.

This experiment addresses AAK1 (full length human) (Homo sapiens, UniProt Q2M2I8). The experiment can be described thus: HEK281 Cell-Based Assay (phospho-mu2 Western blot in HEK293F cells transfected with AAK1 and AP2M1). The note with it: IC50 (nM), functional potency; inhibition of mu2 phosphorylation in HEK293F cells, 3 hours incubation, 5 concentrations.

AAK1 (full length human), sequence (Q2M2I8 1-863 isoform Q2M2I8-2): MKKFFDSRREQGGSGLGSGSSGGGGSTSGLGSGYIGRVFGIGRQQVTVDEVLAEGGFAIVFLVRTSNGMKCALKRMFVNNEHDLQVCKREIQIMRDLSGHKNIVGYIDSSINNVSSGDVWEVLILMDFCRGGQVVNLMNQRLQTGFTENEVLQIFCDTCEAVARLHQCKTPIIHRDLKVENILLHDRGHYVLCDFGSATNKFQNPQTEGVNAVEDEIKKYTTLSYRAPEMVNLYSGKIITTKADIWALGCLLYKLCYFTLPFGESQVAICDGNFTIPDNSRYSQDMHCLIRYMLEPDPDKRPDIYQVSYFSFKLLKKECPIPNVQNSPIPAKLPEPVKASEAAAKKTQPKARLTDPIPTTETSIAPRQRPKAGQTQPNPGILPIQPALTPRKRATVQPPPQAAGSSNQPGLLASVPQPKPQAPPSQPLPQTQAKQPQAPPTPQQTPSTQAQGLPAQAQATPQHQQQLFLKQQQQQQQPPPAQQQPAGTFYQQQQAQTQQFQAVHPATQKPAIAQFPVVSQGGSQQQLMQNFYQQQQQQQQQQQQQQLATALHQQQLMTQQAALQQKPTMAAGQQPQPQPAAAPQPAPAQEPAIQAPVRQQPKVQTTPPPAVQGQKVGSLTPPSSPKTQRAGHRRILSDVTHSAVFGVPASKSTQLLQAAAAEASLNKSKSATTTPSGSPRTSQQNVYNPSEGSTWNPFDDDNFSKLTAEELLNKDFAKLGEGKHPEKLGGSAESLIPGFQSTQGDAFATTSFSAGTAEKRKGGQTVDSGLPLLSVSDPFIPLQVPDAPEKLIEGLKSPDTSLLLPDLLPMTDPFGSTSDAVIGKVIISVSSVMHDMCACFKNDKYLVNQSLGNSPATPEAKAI

Turning to `CSc1nc(CCC(C)C)nc2ccc(-c3cnco3)cc12` [Example 43, 5-(2-Isopentyl-4-(methylthio)quinazolin-6-yl)oxazole], inhibition was half-maximal at 159 nM (IC50).
With `CC(C)CCc1nc(NCCN)c2cc(-c3cnco3)ccc2n1` [Example 44, N^1-(2-Isopentyl-6-(oxazol-5-yl)quinazolin-4-yl)ethane-1,2-diamine] the figure was 2010 nM; with `CCc1nc(CCC(C)C)nc2ccc(-c3ccncc3)cc12` [Example 45, 4-Ethyl-2-isopentyl-6-(pyridin-4-yl)quinazoline], 400 nM.
Take `CC(C)CCc1nc(C(C)C)c2cc(-c3ccncc3)ccc2n1` [Example 46, 2-Isopentyl-4-isopropyl-6-(pyridin-4-yl)quinazoline]: the IC50 stood at 1390 nM.
With `CC(C)CCc1nc(C2CC2)c2cc(-c3ccncc3)ccc2n1` [Example 47, 4-Cyclopropyl-2-isopentyl-6-(pyridin-4-yl)quinazoline] the figure was 1340 nM; with `CC(C)CCc1nc(NCCN(C)C)c2cc(-c3ccncc3)ccc2n1` [Example 48, N-(2-Isopentyl-6-(pyridin-4-yl)quinazolin-4-yl)-N^2,N^2-dimethylethane-1,2-diamine], 1190 nM; with `CC(C)CCc1nc2ccc(-c3ccncc3)cc2c(=O)[nH]1` [Example 49, 2-Isopentyl-6-(pyridin-4-yl)quinazolin-4(3H)-one], 54 nM.
With `CC(C)CCc1nc(NCCO)c2cc(-c3ccncc3)ccc2n1` [Example 50, 2-(2-Isopentyl-6-(pyridin-4-yl)quinazolin-4-ylamino)ethanol] the figure was 301 nM; with `CC(C)CCc1nc2ccc(-c3cn[nH]c3)cc2c(=O)[nH]1` [Example 51, 2-Isopentyl-6-(1H-pyrazol-4-yl)quinazolin-4(3H)-one], 22 nM.
Next, `CCc1nc(CCC(C)C)nc2cc(OC)c(-c3cnco3)cc12` [Example 52, 5-(4-Ethyl-2-isopentyl-7-methoxyquinazolin-6-yl)oxazole]: 1270 nM; `CC(C)CCc1nc(C(N)=O)c2cc(-c3ccncc3)ccc2n1` [Example 53, 2-Isopentyl-6-(pyridin-4-yl)quinazoline-4-carboxamide]: 354 nM; `CCOc1cc2nc(CCC(C)C)nc(CC)c2cc1-c1cnco1` [Example 54, 5-(7-Ethoxy-4-ethyl-2-isopentylquinazolin-6-yl) oxazole]: 2590 nM.
The compound `COc1nc(C(N)CC(C)C)nc2ccc(-c3ccncc3)cc12` (centres unmarked) [Example 55, 1-(4-Methoxy-6-(pyridin-4-yl)quinazolin-2-yl)-3-methylbutan-1-amine] displayed an IC50 of 97 nM.
Next, `CC(C)CCc1nc2ccc(-c3cnco3)cc2c(=S)[nH]1` [Example 56, 2-Isopentyl-6-(oxazol-5-yl)quinazoline-4(3H)-thione]: 5 nM; `CCc1nc(CCC(C)C)nc2ccc(-c3cnco3)cc12` [Example 57, 5-(4-Ethyl-2-isopentylquinazolin-6-yl)oxazole]: 1860 nM.
Next, `COc1cc2nc(CCC(C)C)[nH]c(=O)c2cc1-c1cnco1` [Example 58, 2-Isopentyl-7-methoxy-6-(oxazol-5-yl)quinazolin-4(3H)-one]: 20 nM.
Next, `CC(C)CCc1nc(C(=O)N(C)C)c2cc(-c3ccncc3)ccc2n1` [Example 59, 2-Isopentyl-N,N-dimethyl-6-(pyridin-4-yl)quinazoline-4-carboxamide]: 2670 nM.
As to `CC(C)CCc1nc(C#N)c2cc(-c3ccncc3)ccc2n1` [Example 60, 2-Isopentyl-6-(pyridin-4-yl)quinazoline-4-carbonitrile], the IC50 is 144 nM.
With `CC(C)CCC1=Nc2ccc(-c3ccncc3)cc2C(CO)N1` (centres unmarked) [Example 61, (2-Isopentyl-6-(pyridin-4-yl)-3,4-dihydroquinazolin-4-yl)methanol] the figure was 35 nM; with `CCc1nc(C(N)CC(C)C)nc2ccc(-c3ccncc3)cc12` (centres unmarked) [Example 62, 1-(4-Ethyl-6-(pyridin-4-yl)quinazolin-2-yl)-3-methylbutan-1-amine], 37 nM.
With `CCc1nc(C(N)CC(C)C)nc2ccc(-c3cn[nH]c3)cc12` (centres unmarked) [Example 63, 1-(4-Ethyl-6-(1H-pyrazol-4-yl)quinazolin-2-yl)-3-methylbutan-1-amine] the figure was 28 nM; with `CCc1nc(C(N)CC(C)C)nc2ccc(-c3ccncn3)cc12` (centres unmarked) [Example 64, 1-(4-Ethyl-6-(pyrimidin-4-yl)quinazolin-2-yl)-3-methylbutan-1-amine], 83 nM.
Compound `CCc1nc(C(C)CC(C)C)nc2ccc(-c3ccncc3)cc12` (centres unmarked) [Example 65, 4-Ethyl-2-(4-methylpentan-2-yl)-6-(pyridin-4-yl)quinazoline] showed a 50% inhibitory concentration (IC50) of 223 nM.
Next, `CCc1nc(C(C)CC(C)C)nc2ccc(-c3ccnc(NC(C)=O)c3)cc12` (centres unmarked) [Example 66, N-(4-(4-Ethyl-2-(4-methylpentan-2-yl)quinazolin-6-yl)pyridin-2-yl)acetamide]: 258 nM; `CCc1nc(C(C)CC(C)C)nc2ccc(-c3ccnc(NC)c3)cc12` (centres unmarked) [Example 67, 4-(4-Ethyl-2-(4-methylpentan-2-yl)quinazolin-6-yl)-N-methylpyridin-2-amine]: 1500 nM.
For the compound `CCc1nc(C(CN)CC(C)C)nc2ccc(-c3ccncc3)cc12` (centres unmarked) [Example 68, 2-(4-Ethyl-6-(pyridin-4-yl)quinazolin-2-yl)-4-methylpentan-1-amine], 144 nM corresponded to half-maximal inhibition (IC50).
Next, `CCc1nc(C(N)CCC(F)(F)F)nc2ccc(-c3ccncc3)cc12` (centres unmarked) [Example 69, 1-(4-Ethyl-6-(pyridin-4-yl)quinazolin-2-yl)-4,4,4-trifluorobutan-1-amine]: 32 nM; `CCc1nc([C@H](N)CC2CC2)nc2ccc(-c3ccncc3)cc12` [Example 70, (R)-2-Cyclopropyl-1-(4-ethyl-6-(pyridin-4-yl)quinazolin-2-yl)ethanamine]: 126 nM; `CCc1nc([C@H](N)C2CCCC2)nc2ccc(-c3ccncc3)cc12` [Example 71, (R)-Cyclopentyl(4-ethyl-6-(pyridin-4-yl)quinazolin-2-yl)methanamine]: 32 nM.
Next, `CCc1nc([C@H](N)C2CCCCC2)nc2ccc(-c3ccncc3)cc12` [Example 72, (R)-Cyclohexyl(4-ethyl-6-(pyridin-4-yl)quinazolin-2-yl)methanamine]: 13 nM; `CC(C)CC(N)c1nc(N2CCC2)c2cc(-c3ccncc3)ccc2n1` (centres unmarked) [Example 73, 1-(4-(Azetidin-1-yl)-6-(pyridin-4-yl)quinazolin-2-yl)-3-methylbutan-1-amine]: 44 nM; `CC(C)CC(N)c1nc(N2CC2)c2cc(-c3ccncc3)ccc2n1` (centres unmarked) [Example 74, 1-(4-(Aziridin-1-yl)-6-(pyridin-4-yl)quinazolin-2-yl)-3-methylbutan-1-amine]: 263 nM.
In turn, `COc1cc2nc(CCC(C)C)nc(C)c2cc1-c1cnco1` [Example 75, 5-(2-Isopentyl-7-methoxy-4-methylquinazolin-6-yl)oxazole] showed an IC50 of 590 nM.
Next, `CC(C)CCc1nc(NCCO)c2cc(-c3cnco3)ccc2n1` [Example 76, 2-((2-Isopentyl-6-(oxazol-5-yl)quinazolin-4-yl)amino)ethanol]: 1810 nM; `COCCNc1nc(CCC(C)C)nc2ccc(-c3cnco3)cc12` [Example 77, 2-Isopentyl-N-(2-methoxyethyl)-6-(oxazol-5-yl)quinazolin-4-amine]: 3460 nM.
With `CC(C)CCc1nc(NCCN2CCCC2)c2cc(-c3cnco3)ccc2n1` [Example 78, 2-Isopentyl-6-(oxazol-5-yl)-N-(2-(pyrrolidin-1-yl)ethyl)quinazolin-4-amine] the figure was 1090 nM; with `Cc1cnc(CNc2nc(CCC(C)C)nc3ccc(-c4cnco4)cc23)cn1` [Example 79], 6600 nM; with `CC(C)CCc1nc(NCCCN(C)C)c2cc(-c3cnco3)ccc2n1` [Example 80, N^1-(2-Isopentyl-6-(oxazol-5-yl)quinazolin-4-yl)-N^3,N^3-dimethylpropane-1,3-diamine], 3320 nM.
Next, `CC(C)CCc1nc(NCCN(C)C)c2cc(-c3cnco3)ccc2n1` [Example 81, N^1-(2-Isopentyl-6-(oxazol-5-yl)quinazolin-4-yl)-N^2,N^2-dimethylethane-1,2-diamine]: 8610 nM; `COC(=O)CCNc1nc(CCC(C)C)nc2ccc(-c3cnco3)cc12` [Example 82, Methyl 3-((2-isopentyl-6-(oxazol-5-yl)quinazolin-4-yl)amino)propanoate]: 4620 nM; `CC(C)CCc1nc(N2CCC2)c2cc(-c3cnco3)ccc2n1` [Example 83, 5-(4-(Azetidin-1-yl)-2-isopentylquinazolin-6-yl)oxazole]: 812 nM.
With `CC(C)CCc1nc(NC2CC2)c2cc(-c3cnco3)ccc2n1` [Example 84, N-Cyclopropyl-2-isopentyl-6-(oxazol-5-yl)quinazolin-4-amine], the midpoint of inhibition, the IC50, lay at 2580 nM.
Next, `CCc1nc(C(N)CC(C)C)nc2cc(OC)c(-c3cnco3)cc12` (centres unmarked) [Example 85, 1-(4-Ethyl-7-methoxy-6-(oxazol-5-yl)quinazolin-2-yl)-3-methylbutan-1-amine]: 24 nM; `CCc1nc(C(N)CC(C)C)nc2cc(OC)c(-c3ccncc3)cc12` (centres unmarked) [Example 88, 1-(4-Ethyl-7-methoxy-6-(pyridin-4-yl)quinazolin-2-yl)-3-methylbutan-1-amine]: 932 nM.

As usually defined, the IC50 is the concentration that inhibits the measured activity by half.
